Experiment [1] deals with Plasmodium falciparum. The experiment can be described thus: microbe, parasite or virus in culture.
Description: (§1) In vitro inhibitory activity against chloroquine-sensitive Plasmodium falciparum African D6
In experiment [2] the test system is Plasmodium falciparum. In words: microbe, parasite or virus in culture. The source holds these as a separate data set.
Description: (§2) In vitro inhibitory activity against chloroquine-resistant Plasmodium falciparum W2 Indochina
The test system of experiment [3] is Plasmodium falciparum.
Description: as §1
The subject of experiment [4] is Plasmodium falciparum. The source holds these as a separate data set.
Description: as §2

The values below come from ChEMBL document CHEMBL1135585, “Mixed steroidal 1,2,4,5-tetraoxanes: antimalarial and antimycobacterial activity” (J Med Chem, 2002).

Turning to `CCNC(=O)CCC(C)C1CC[C@H]2[C@@H]3[C@H](OC(C)=O)C[C@@H]4CC5(CC[C@]4(C)[C@H]3C[C@H](OC(C)=O)[C@]12C)OOC1(CCCCC1C)OO5` (some centres not stated), the IC50 was found to be 12.7 nM in the experiment on Plasmodium falciparum [1] and 6.97 nM in the experiment on Plasmodium falciparum [2].
The like results for `CNC(=O)CCC(C)C1CC[C@H]2[C@@H]3[C@H](OC(C)=O)C[C@@H]4CC5(CC[C@]4(C)[C@H]3C[C@H](OC(C)=O)[C@]12C)OOC1(CCCCC1C)OO5` (some centres not stated) were, in that order, 15.2 nM and 10 nM.
In the case of `COC(=O)CCC(C)C1CC[C@H]2[C@@H]3[C@H](OC(C)=O)C[C@@H]4CC5(CC[C@]4(C)[C@H]3C[C@H](OC(C)=O)[C@]12C)OOC1(CC(C)CCC1C(C)C)OO5` (some centres not stated), the half-maximal inhibitory concentration (IC50) was 154 nM in the experiment on Plasmodium falciparum [1] and 73.2 nM with Plasmodium falciparum [2].
On to `COC(=O)CCC(C)C1CC[C@H]2[C@@H]3[C@H](OC(C)=O)C[C@@H]4CC5(CC[C@]4(C)[C@H]3C[C@H](OC(C)=O)[C@]12C)OOC1(OO5)C(C)CCCC1C` (some centres not stated), for which the values for the concentration for half-maximal inhibition (IC50) in the experiment with Plasmodium falciparum [1] and with Plasmodium falciparum [2] were 31.2 nM and 357 nM, respectively.
With `COC(=O)CCC(C)C1CC[C@H]2[C@@H]3[C@H](OC(C)=O)C[C@@H]4CC5(CC[C@]4(C)[C@H]3C[C@H](OC(C)=O)[C@]12C)OOC1(CCCCC1)OO5` (some centres not stated), the concentration for half-maximal inhibition (IC50) turned out to be 21.5 nM in the experiment with Plasmodium falciparum [1] and 17 nM with Plasmodium falciparum [2].
In the case of `CCC1CCC2(CC1)OOC1(CC[C@@]3(C)[C@H](C[C@@H](OC(C)=O)[C@@H]4[C@@H]3C[C@H](OC(C)=O)[C@]3(C)C(C(C)CCC(N)=O)CC[C@@H]43)C1)OO2` (mixture of isomers; 20), the results for the IC50 with Plasmodium falciparum [3] and with Plasmodium falciparum [4] were 8.4 nM and 10.7 nM, respectively.
As for `CCC1CCC2(CC1)OOC1(CC[C@@]3(C)[C@H](C[C@@H](OC(C)=O)[C@@H]4[C@@H]3C[C@H](OC(C)=O)[C@]3(C)C(C(C)CCC(=O)NC)CC[C@@H]43)C1)OO2` (mixture of isomers; 21), the IC50 with Plasmodium falciparum [3] was found to be 7.21 nM; in the experiment on Plasmodium falciparum [2], 7.82 nM.
In the case of `CCCNC(=O)CCC(C)C1CC[C@H]2[C@@H]3[C@H](OC(C)=O)C[C@@H]4CC5(CC[C@]4(C)[C@H]3C[C@H](OC(C)=O)[C@]12C)OOC1(CCC(CC)CC1)OO5` (mixture of isomers; 23), the IC50 in the experiment with Plasmodium falciparum [3] was determined as 8.34 nM; in the experiment on Plasmodium falciparum [4], 4.51 nM.
For the molecule `CCC1CCC2(CC1)OOC1(CC[C@@]3(C)[C@H](C[C@@H](OC(C)=O)[C@@H]4[C@@H]3C[C@H](OC(C)=O)[C@]3(C)C(C(C)CCC(N)=O)CC[C@@H]43)C1)OO2` (mixture of isomers; 24), the IC50 was determined as 31.1 nM in the experiment on Plasmodium falciparum [3] and 12.5 nM with Plasmodium falciparum [2].
Regarding `CCC1CCC2(CC1)OOC1(CC[C@@]3(C)[C@H](C[C@@H](OC(C)=O)[C@@H]4[C@@H]3C[C@H](OC(C)=O)[C@]3(C)C(C(C)CCC(=O)NC)CC[C@@H]43)C1)OO2` (mixture of isomers; 25), the IC50 was found to be 27.9 nM in the experiment with Plasmodium falciparum [3] and 6.15 nM with Plasmodium falciparum [4].
In the case of `CCNC(=O)CCC(C)C1CC[C@H]2[C@@H]3[C@H](OC(C)=O)C[C@@H]4CC5(CC[C@]4(C)[C@H]3C[C@H](OC(C)=O)[C@]12C)OOC1(CCC(CC)CC1)OO5` (mixture of isomers; 26), the concentration for half-maximal inhibition (IC50) is 23.1 nM in the experiment with Plasmodium falciparum [3] and 18.1 nM in the experiment on Plasmodium falciparum [4].
As for `CCCNC(=O)CCC(C)C1CC[C@H]2[C@@H]3[C@H](OC(C)=O)C[C@@H]4CC5(CC[C@]4(C)[C@H]3C[C@H](OC(C)=O)[C@]12C)OOC1(CCC(CC)CC1)OO5` (mixture of isomers; 27), the IC50 was 90.2 nM in the experiment with Plasmodium falciparum [3] and 123 nM with Plasmodium falciparum [4].
For `CCC1CCC2(CC1)OOC1(CC[C@@]3(C)[C@H](C[C@@H](OC(C)=O)[C@@H]4[C@@H]3C[C@H](OC(C)=O)[C@]3(C)C(C(C)CCC(=O)OC)CC[C@@H]43)C1)OO2` (single isomer, unassigned; 3i), in that order: 6.73 nM and 15.5 nM.
On to `CCC1CCC2(CC1)OOC1(CC[C@@]3(C)[C@H](C[C@@H](OC(C)=O)[C@@H]4[C@@H]3C[C@H](OC(C)=O)[C@]3(C)C(C(C)CCC(=O)OC)CC[C@@H]43)C1)OO2` (single isomer, unassigned; 3j), for which the results for the IC50 in the experiment on Plasmodium falciparum [3] and with Plasmodium falciparum [2] were 17.7 nM and 28.3 nM, respectively.
On to `COC(=O)CCC(C)C1CC[C@H]2[C@@H]3[C@H](OC(C)=O)C[C@@H]4CC5(CC[C@]4(C)[C@H]3C[C@H](OC(C)=O)[C@]12C)OOC1(CCC(C)CC1)OO5` (stereo in doubt; 3h), for which the figures for the IC50 in the experiment with Plasmodium falciparum [3] and in the experiment on Plasmodium falciparum [4] were 24.6 nM and 13.2 nM, respectively.
Take `COC(=O)CCC(C)C1CC[C@H]2[C@@H]3[C@H](OC(C)=O)C[C@@H]4CC5(CC[C@]4(C)[C@H]3C[C@H](OC(C)=O)[C@]12C)OOC1(CCC(C(C)(C)C)CC1)OO5` (stereo in doubt; 3k): the IC50 was found to be 107 nM in the experiment on Plasmodium falciparum [3] and 52.7 nM in the experiment with Plasmodium falciparum [4].
In the case of `COC(=O)CCC(C)C1CC[C@H]2[C@@H]3[C@H](OC(C)=O)C[C@@H]4CC5(CC[C@]4(C)[C@H]3C[C@H](OC(C)=O)[C@]12C)OOC1(CCC(C(C)(C)C)CC1)OO5` (stereo in doubt; 3l), the results for the half-inhibitory concentration (IC50) in the experiment on Plasmodium falciparum [3] and with Plasmodium falciparum [2] were 51.9 nM and 27.8 nM, respectively.
Regarding `CC(=O)O[C@H]1C[C@H]2[C@@H]([C@H](OC(C)=O)C[C@@H]3CC4(CC[C@@]32C)OOC2(CCC(C)CC2)OO4)[C@@H]2CCC(C(C)CCC(=O)O)[C@@]12C` (stereo in doubt; 4h), the IC50 with Plasmodium falciparum [3] was determined as 31.1 nM; in the experiment with Plasmodium falciparum [4] it was 17.7 nM.
As to `CCC1CCC2(CC1)OOC1(CC[C@@]3(C)[C@H](C[C@@H](OC(C)=O)[C@@H]4[C@@H]3C[C@H](OC(C)=O)[C@]3(C)C(C(C)CCC(=O)O)CC[C@@H]43)C1)OO2` (stereo in doubt; 4j), the IC50 with Plasmodium falciparum [3] worked out at 9.83 nM; with Plasmodium falciparum [4], 14.4 nM.
For `CC(=O)O[C@H]1C[C@H]2[C@@H]([C@H](OC(C)=O)C[C@@H]3CC4(CC[C@@]32C)OOC2(CCC(C)CC2)OO4)[C@@H]2CCC(C(C)CCC(N)=O)[C@@]12C` (stereo in doubt; 16), in that order: 20 nM and 14.1 nM.
Consider `CNC(=O)CCC(C)C1CC[C@H]2[C@@H]3[C@H](OC(C)=O)C[C@@H]4CC5(CC[C@]4(C)[C@H]3C[C@H](OC(C)=O)[C@]12C)OOC1(CCC(C)CC1)OO5` (stereo in doubt; 17), for which the half-maximal inhibitory concentration (IC50) with Plasmodium falciparum [3] was 16.7 nM; in the experiment on Plasmodium falciparum [4], 11.9 nM.
As for `CCNC(=O)CCC(C)C1CC[C@H]2[C@@H]3[C@H](OC(C)=O)C[C@@H]4CC5(CC[C@]4(C)[C@H]3C[C@H](OC(C)=O)[C@]12C)OOC1(CCC(C)CC1)OO5` (stereo in doubt; 18), the IC50 in the experiment with Plasmodium falciparum [3] amounted to 15.6 nM; in the experiment with Plasmodium falciparum [4], 9.93 nM.
For `CCCNC(=O)CCC(C)C1CC[C@H]2[C@@H]3[C@H](OC(C)=O)C[C@@H]4CC5(CC[C@]4(C)[C@H]3C[C@H](OC(C)=O)[C@]12C)OOC1(CCC(C)CC1)OO5` (stereo in doubt; 19), in that order: 84.9 nM and 83 nM.
Take `OC(c1cc(C(F)(F)F)nc2c(C(F)(F)F)cccc12)C1CCCCN1` (configuration not stated) [MEFLOQUINE]: the midpoint of inhibition in the experiment with Plasmodium falciparum [1], the IC50, lay at 28.3 nM.
